Where “and” joins values, the source holds several entries; their conditions need not be identical. Identical values can stand only once.

We go through one compound from patent US8303960B2, “Radiolabeled affibody molecules” (The United States of America, as represented by the …, priority 2007, dated 2012).

Assay type in all cases: in vivo, mice
Test [1] concerns HER2. As to the kind of experiment: Ex-vivo western blot of tumor tissue lysates after 17-DMAG treatment. Particulars: for HER2 western blot signal, fraction of control lane (in parentheses): lane (3) relative to lane (1); for HER2 western blot, mean intensity of the signal: after 17-DMAG. Here is the method: (§1) Mice bearing BT-474 or MCF7/clone18 subcutaneous tumors are treated with two doses (30-50 mg/kg, 12 or 24 h apart) of 17-DMAG. Animals (n=4-6) are scanned before, 36 h, and 84 h after the treatment. Immediately after the last scan, the animals are euthanized, and the tumors are frozen for further analysis. HER2 expression in the tumors is then measured ex-vivo by western blot (Table 2) and ELISA (Table 3).
In general terms: Immunoblotting shows a protein as a band on a membrane.

Test [2] relates to HER2. As to the kind of experiment: Ex-vivo ELISA of tumor tissue lysates after 17-DMAG treatment. Here is the method:
as §1

For test [3], the system named is HER2. Nature of the test: PET imaging of ^18F-ZHER2-affibody tumor uptake before and after 17-DMAG. As to conditions: 84 h post-treatment; BT-474 and MCF7/clone 18 tumors. The method, then: as §1, with “3). In animals treated with 17-DMAG, the accumulation of radioactivity estimated by PET imaging decreases 50-70% at 84 h post-treatment (FIGS. 11 and 12). This change is confirmed by the biodistribution studies, see, e.g., FIG. 13.” for “3).”

As to `CO[C@H]1/C=C\C=C(/C)C(=O)NC2=CC(=O)C(NCCN(C)C)=C(C[C@@H](C)C[C@H](OC)[C@H](O)[C@@H](C)/C=C(\C)[C@@H]1OC(N)=O)C2=O` [17-DMAG, 17-dimethylaminoethylamino-17-demethoxygeldanamycin], the “HER2 western blot signal, fraction of control lane (in parentheses)” value with HER2 [1] (dry transfer) was “(0.36)”; with HER2 [1] (wet transfer), “(0.34)”. The “HER2 western blot, mean intensity of the signal” value in the test with HER2 [1] (dry transfer, lane (3)) is 43.24 DU; in the test on HER2 [1] (dry transfer, lanes (5) and (6)), 99.85 DU and 88.68 DU; in the test on HER2 [1] (wet transfer, lane (3)) it was 83.08 DU; with HER2 [1] (wet transfer, lanes (5) and (6)) it was 187.69 DU and 156.39 DU. Besides, the “decrease of HER2 expression” value in the test on HER2 [1] (ex vivo analysis of tumor samples by western blots and ELISA) is 50-70%. Moreover, the “HER2 in tissue lysate (ELISA)” value in the test on HER2 [2] (BT-474 tumor after 17-DMAG, Trial 1) is reported as 541.41 fmol/mg protein; with HER2 [2] (BT-474 tumor after 17-DMAG, Trial 2), 504.86 fmol/mg protein; in the test with HER2 [2] (MCF7/clone 18 tumor after 17-DMAG, Trial 1), 602.19 fmol/mg protein; in the test on HER2 [2] (MCF7/clone 18 tumor after 17-DMAG, Trial 2), 516.77 fmol/mg protein. Also, the “HER2 (ELISA), fraction of untreated control (in parentheses)” value was “(0.35)” in the test with HER2 [2] (BT-474 tumor, Trial 1); “(0.30)” in the test on HER2 [2] (BT-474 tumor, Trial 2); “(0.43)” in the test on HER2 [2] (MCF7/clone 18 tumor, Trial 1); “(0.36)” in the test with HER2 [2] (MCF7/clone 18 tumor, Trial 2). Also, the “decrease of accumulation of radioactivity estimated by PET imaging” value in the test with HER2 [3] is on record as 50-70%.
